Measurements as given in patent publication US20220332799A1, “HERV INHIBITORS FOR USE IN TREATING TAUOPATHIES” (Deutsches Zentrum Für Neurodegenerative Erkrankungen E.V. …, priority 2019, published 2022).
Entries after “also recorded” stand apart in the source; their conditions may differ. Where two headings read alike, the source gives them in different places.

What was measured:
[1] = system: N2a NM-GFP^sol cells; type: cell-based, mouse; conditions: for percentage of recipient cells with NM-GFP aggregates: compounds added to cocultures 1 h after co-seeding, three concentrations, 12 h
[2] = system: MuERV env and gag mRNA; assay: qRT-PCR of MuERV env and gag transcripts in donor clone s2E; type: cell-based, mouse; conditions: for total env and gag mRNA: s2E P21 donors, L-methionine 80 mM, Betaine 80 mM, Choline chloride 20 mM, 6 days, vs medium control; for expression of total env and gag mRNA: s2E P1 donors, Aza 200 nM or Dec 100 nM, then 5 days without drug, vs DMSO
Description: To inhibit methyltransferases, s2E P1 donor cells were treated for three days with methyltransferase inhibitors 5-Azacytidine (Aza) 200 nM, Decitabine (Dec) 100 nM or DMSO as solvent control. Subsequently, the cells were cultured in the absence of the drugs for 5 days. Pre-treated donor cells were subsequently cocultured with recipient cells as described above to monitor aggregate induction efficiency in recipient N2a NM-GFP^sol cells. Cell lysates of donor cells were also analyzed for MuERV Env and Gag expression levels by western blot. To increase DNA methylation, the s2E donor clone (P21) was treated with methyl group donors L-methionine (L-M) 80 mM, Betaine (B) 80 mM, Choline chloride (CC) 20 mM or medium control for 6 days. MuERV Env and Gag protein levels were analyzed by western blot. Subsequently, cells were cocultured with recipient cells for 16 h. The percentage of aggregate containing recipient cells was compared to the percentage of aggregate bearing recipients cocultured with solvent-treated donors. […]
Total RNA from cell pellets or brain samples was isolated using the RNeasy Mini Kit or RNeasy Lipid Tissue Mini Kit (Qiagen). RNA concentration and quality were determined using the Agilent 2100 Bioanalyzer System. For a 20 μl reaction, 1 μg RNAs were reversely transcribed to cDNA using the iScript™ cDNA Synthesis Kit (Bio-Rad). For a 20 μl qRT-PCR reaction, 2 μl of synthesized cDNA was used as template. For qRT-PCR of murine env AA037244.2 and gag AID54952, custom designed TaqMan probes were used (Thermo Fisher Scientific). Pre-designed TaqMan probes by the company for murine pan-env, xpr1, mcat-1 and gapdh as housekeeping control and TaqMan™ Gene Expression Master Mix (Thermo Fisher Scientific) were used. qRT-PCR using TaqMan probes was performed as described in the manufacturer's instruction. For qRT-PCR analyses of HERV family members, primers were designed using the corresponding cDNA sequences (cf. SEQ ID NOs. 73-92). PowerUP SYBR™ Green Master Mix (Thermo Fisher Scientific) was mixed with different cDNAs and corresponding primers as indicated in the instruction. The fast cycling mode was used for all primers.

[3] = system: MuERV Env and Gag; type: cell-based, mouse
Description: To inhibit methyltransferases, s2E P1 donor cells were treated for three days with methyltransferase inhibitors 5-Azacytidine (Aza) 200 nM, Decitabine (Dec) 100 nM or DMSO as solvent control. Subsequently, the cells were cultured in the absence of the drugs for 5 days. Pre-treated donor cells were subsequently cocultured with recipient cells as described above to monitor aggregate induction efficiency in recipient N2a NM-GFP^sol cells. Cell lysates of donor cells were also analyzed for MuERV Env and Gag expression levels by western blot. To increase DNA methylation, the s2E donor clone (P21) was treated with methyl group donors L-methionine (L-M) 80 mM, Betaine (B) 80 mM, Choline chloride (CC) 20 mM or medium control for 6 days. MuERV Env and Gag protein levels were analyzed by western blot. Subsequently, cells were cocultured with recipient cells for 16 h. The percentage of aggregate containing recipient cells was compared to the percentage of aggregate bearing recipients cocultured with solvent-treated donors.
Pre-designed siRNAs against murine XPR1 and mCat-1 genes were used to knock-down genes coding for putative receptors. For transfection, 2-4×10^5 cells/well were seeded on 6 well plates. The next day, 30 nM siRNA or plasmid DNA was transfected using Lipofectamine RNAiMAX or Lipofectamine2000 transfection reagent, respectively, according to the manufacturer's instructions (Thermo Fisher Scientific). After 2 days, transfected cells were harvested for aggregate induction assays and qRT-PCR, western blot analysis.
For Western blot analysis, protein concentrations were measured using the Quick Start™ Bradford Protein assay (Bio-Rad). Proteins were separated on NuPAGE®Novex® 4-12 Bis-Tris Protein Gels (Life Technologies) followed by transfer onto a PVDF membrane (GE Healthcare). Western blot analysis was performed using rat hybridoma anti-MuERV Env mAb83A25; anti-xenotropic MuLV virus antibody ABIN457298 for detecting both Env and Gag (antibodies-online); mouse anti-MuERV Gag ab100970 (Abcam); mouse anti-Alix (1:1000; BD Bioscience); rat anti-HA 3F10 (1:1000; Roche); mouse anti-GAPDH 6C5 (1:5000; Abcam); mouse anti-Hsc/Hsp70 N27F3-4 (1:1000; ENZO); mouse anti-VSV-G A5977 (Sigma); rabbit anti-Tau ab64193 (Abcam); mouse anti-HERV K Env HERM-1811-5 (Amsbio); mouse anti-HERV K Gag HERM-1841-5 (Amsbio). The membrane was incubated with Pierce™ ECL Western Blotting Substrate (Thermo Fisher Scientific) according to the manufacturer's recommendations.

[4] = molecular target: T1, HERV-K protease (Homo sapiens, UniProt P10265); conditions: stated as shown previously; cited from earlier work
T1 sequence (P10265 1-156): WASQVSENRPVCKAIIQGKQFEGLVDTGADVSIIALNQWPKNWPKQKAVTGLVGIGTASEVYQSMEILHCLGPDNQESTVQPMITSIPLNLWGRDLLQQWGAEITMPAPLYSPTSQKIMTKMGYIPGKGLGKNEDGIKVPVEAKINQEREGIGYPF

[5] = system: HEK Tau-FRsol cells; assay: Tau-FR aggregate induction by coculture with A375 Tau-GFPAD donor cells; type: cell-based, human; conditions: donors 10 μM for 3 d; coculture 3 d in presence of 10 μM; vs DMSO
Description: (§1) Melanoma cell line A375 (Oricchio E, Sciamanna I, Beraldi R, Tolstonog G V, Schumann G G, Spadafora C. 2007. Distinct roles for LINE-1 and HERV-K retroelements in cell proliferation, differentiation and tumor progression. Oncogene 26:4226-4233) was engineered to stably express Tau-GFP and subsequently exposed to AD brain homogenate to induce Tau aggregation. A clone stably propagating Tau-GFPagg was isolated and used for experiments. Donor A375 Tau-GFPAD cells were treated with 10 μM inhibitor Lopinavir to repress HERV-K protease for 3 d before EV were harvested. Donors or donor EV were then cultured with recipient HEK Tau-FRsol cells in the presence of 10 μM Lopinavir or DMSO for 3 d. • b. Quantitative analysis of recipient cells with Tau-FRagg upon coculture with donors. Statistical analysis was performed with unpaired Student's t-test (n=6). • c. Quantitative analysis of recipient cells with induced Tau-FRagg following exposure to donor-derived EV. Statistical analysis was performed with unpaired Student's t-test (n=3). […]
(§2) To inhibit methyltransferase, MCF-7 Tau-GFPAD cells were treated with 2 μM Aza or DMSO for 4 d. […] Afterwards, the total numbers of viable cells and the viability upon drug treatments were determined using the Vi-VELLTMXR Cell Viability Analyzer (Beckman Coulter). […]

[6] = system: HEK Tau-FRsol cells; assay: Tau-FR aggregate induction by EV from A375 Tau-GFPAD donor cells; type: cell-based, human; conditions: EV from donors treated with 10 μM for 3 d; 3 d on recipients in presence of 10 μM; vs DMSO
Description: as §1, §2

## C[N+](C)(C)CC(=O)O [Betaine]
[1]; s2E P21 donors pretreated 6 days, coculture 16 h
  NM-GFP aggregate induction when pretreated donors were cocultured with recipient cells: decreased NM-GFP aggregate induction
[2]
  total env and gag mRNA: transcripts decreased
[2]; listed as betaine
  total env and gag mRNA: decreased total env and gag mRNA
[3]; s2E P21 donors, L-methionine 80 mM, Betaine 80 mM, Choline chloride 20 mM, 6 days, vs medium control
  MuERV proteins: decreased

## C[N+](C)(C)CCO.[Cl-] [Choline chloride]
[1]
  NM-GFP aggregate induction when pretreated donors were cocultured with recipient cells: decreased NM-GFP aggregate induction
[2]
  total env and gag mRNA: transcripts decreased
[2]; listed as choline chloride
  total env and gag mRNA: decreased total env and gag mRNA
[3]
  MuERV proteins: decreased

## Nc1ncn([C@@H]2O[C@H](CO)[C@@H](O)[C@H]2O)c(=O)n1 [5-Azacytidine]
[1]; s2E P1 donors pretreated, Aza 200 nM or Dec 100 nM, vs DMSO
  NM aggregate induction in recipient cells cocultured with pretreated donors: significantly increased NM aggregate induction in recipient cells
[2]
  expression of total env and gag mRNA: increased expression of total env and gag mRNA
[2]; listed as 5-azacytidine
  expression of total env and gag mRNA: Increased expression of MuERV env (f), gag (h) and pan-env (g) transcripts
[3]; s2E P1 donors, Aza 200 nM or Dec 100 nM, then 5 days without drug, vs DMSO
  expression of MuERV proteins: increased expression

## CSCC[C@H](N)C(=O)O [L-methionine]
[1]
  NM-GFP aggregate induction when pretreated donors were cocultured with recipient cells: decreased NM-GFP aggregate induction
[2]
  total env and gag mRNA: transcripts decreased
[2]; listed as 1-methionine
  total env and gag mRNA: decreased total env and gag mRNA
[3]
  MuERV proteins: decreased

## COC(=O)N[C@H](C(=O)N[C@@H](Cc1ccccc1)[C@@H](O)CN(Cc1ccc(-c2ccccn2)cc1)NC(=O)[C@@H](NC(=O)OC)C(C)(C)C)C(C)(C)C [atazanavir]
[1]; vs DMSO
  percentage of recipient cells with NM-GFP aggregates: reduced the percentage of recipient cells with NM-GFP aggregates
[1]; vs DMSO, listed as Atazenavir
  percentage of recipient cells with NM-GFP aggregates: reduce aggregate induction

## Cc1cccc(C)c1OCC(=O)N[C@@H](Cc1ccccc1)[C@@H](O)C[C@H](Cc1ccccc1)NC(=O)[C@H](C(C)C)N1CCCNC1=O [Lopinavir]
[4]
  inhibition of HERV-K protease required for HERV protein maturation: inhibit HERV-K protease
[5]
  recipient cells with Tau-FRagg upon coculture with donors: significant reduction of recipient cells with aggregates; also recorded: reduces intercellular Tau aggregate spreading; also recorded: reduces intercellular protein aggregate spreading
[6]
  Tau aggregate inducing activity of donor-derived EV in recipients: reduced Tau aggregate inducing activity in recipients
